Test results reported in US10583127B2, “Amine salt of (1R, 3S)-3-(5-cyano-4-phenyl-1,3- thiazol-2-ylcarbamoyl)cyclopentane carboxylic acid” (PALOBIOFARMA, S.L., priority 2017, dated 2020).
Entries after “also recorded” stand apart in the source; their conditions may differ. Like-named read-outs stand apart in the source and are kept apart here.

Experiments:
[1] = Oral bioavailability assay: plasma pharmacokinetics after single IV and PO administration; conditions: male SD rats
Experimental: (§1) Animals were divided into two groups: Group 1 (IV: 1 mg/kg) and Group 2 (PO: 5 mg/kg). […] The blood samples were collected from set of three rats at each time point in labeled micro centrifuge tube containing K2EDTA solution as anticoagulant at Pre-dose, 0.083, 0.25, 0.5, 1, 2, 4, 8 and 24 hr (IV) and Pre-dose, 0.25, 0.5, 1, 2, 4, 6, 8 and 24 hr (PO). Plasma samples were separated by centrifugation of whole blood and stored below −70±10° C. until bioanalysis. All samples were processed for analysis by protein precipitation using acetonitrile and analyzed with fit-for-purpose LC-MS/MS method (LLOQ=1.00 ng/ml). Pharmacokinetic parameters were calculated using the non-compartmental analysis tool of Phoenix WinNonlin® (Version 6.3).
(§2) AUC last refers to the area under the curve from the time of dosing to the time of last observation that is greater than the limit of quantitation.
(§3) Clearance refers to the measurement of the ability of the body to remove drug from the plasma, and is calculated from the intravenous dosing.
(§4) F % refers to the bioavailability. The systemic availability of a compound after oral administration is calculated using the following equation: F(%)=(AUClast PO×Dose IV/AUClast IV×Dose PO)×100

[2] = Hygroscopicity study by Dynamic Vapour Sorption (DVS) profiles; assay type: physicochemical; conditions: for moisture content at 25% RH / moisture content at 55% RH / moisture content at 75% RH (variation in the moisture content): DVS sorption isotherm at 25° C.
Experimental: Hygroscopicity studies of salts were carried out by preparation of Dynamic Vapour Sorption (DVS) profiles, with a TA instrument Q5000 apparatus. After an initial stabilization period (samples are pre-dried at 60° C. under vacuum), isotherms (at 25° C.) were obtained for each sample: a moisture sorption from 0 to 95% relative humidity (RH) and moisture desorption from 95% RH to dryness. Both isotherms were performed in 5% and 10% humidity steps.
The relative humidity (RH) was controlled by a mixture of wet and dry nitrogen stream. The RH was held constant until the equilibrium had been obtained (constant weight) or until the maximum time has been reached, before changing the RH to the next level.

[3] = Stability study under forced conditions (one week at 40° C. and 70% RH, XRPD check); assay type: physicochemical
Experimental: Stability studies under forced conditions were carried out by keeping the product under study for one week at 40° C. and 70% RH. Salts were analyzed by XRPD to check any change in the crystalline form.

[4] = Solubility screen assay (nephelometry); conditions: 37° C.
Experimental: (§5) Solubility screen assays were carried out as following: stock solutions (10^−2M) of the assayed compounds were diluted to decreased molarity from 500 μM to 0.256 nM, in 384 well transparent plate (Greiner 781101) with 5% DMSO: 95% PBS buffer. Samples were incubated at 37° C. and read after 2 and 4 hours in a NEPHELOstar Plus (BMGLABTECH).

physchem = conditions: 37 °C, aqueous with cosolvent or surfactant or cyclodextrin, kinetic from dmso stock
Experimental: as §5

in vivo = conditions: male, SD, rat
Experimental: as §1, §2, §3, §4

[5] = listed as (1R-3S)-3-(5-cyano-4-phenyl-1,3-thiazol-2-ylcarbamoyl)cyclopentane carboxylic ac
[6] = DVS, usual drug storage conditions (<75% RH)

Work on `N#Cc1sc(NC(=O)[C@H]2CC[C@@H](C(=O)O)C2)nc1-c1ccccc1` [(1R,3S)-3-(5-cyano-4-phenyl-1,3-thiazol-2-ylcarbamoyl)cyclopentane carboxylic acid] yielded an AUC(0-t) ([1]; male, SD, rat, plasma, iv, 1 mg/kg, AUC last, iv 1 mg/Kg) of 2200 ng·h/mL and a clearance ([1]; male, SD, rat, plasma, iv, 1 mg/kg, Clearance, iv 1 mg/Kg) of 6.3 mL/min/kg.
For `N#Cc1sc(NC(=O)[C@H]2CC[C@@H](C(=O)O)C2)nc1-c1ccccc1` [(1R,3S)-3-(5-cyano-4-phenyl-1,3-thiazol-2-ylcarbamoyl)cyclop] [1,3-dihydroxy-2-(hydroxymethyl)propan-2-aminium (1R,3S)-3-((5-cyano-4-phenylthiazol-2-yl)carbamoyl)cyclopentane-1-carboxylate], the “moisture content at 25% RH” value [2, 5] was 0.0722%, the “moisture content at 55% RH” value [2, 5] was 0.1165% and the “moisture content at 75% RH (variation in the moisture content)” value (“moisture content at 75% RH” for short) [2, 5] was 0.2096%. For the same molecule, the “moisture content at 75% RH” value ([2]; listed as tromethamine salt) was 0.17%, the “hygroscopicity (result in words)” value [2, 6] was “less hygroscopic than the free acid form” and the “hygroscopicity (result in words)” value ([2]; DVS, usual drug storage conditions (<75% RH), listed as tromethamine salt) was “less hygroscopic than free acid”. The “stability under forced conditions (result in words)” value (“stability under forced conditions” below) [3] was “no cristallinity changes, colour or any other change in the aspect were observed; also recorded: stable solid, even under forced stability conditions”, the “solubility compared with other salts and free acid” value [4] was “higher solubility compared to others salts” and the AUC last ([1]; iv 1 mg/Kg, plasma, 1 mg/kg) was 2373.87 ng·h/mL. It also gave a clearance ([1]; iv 1 mg/Kg, 1 mg/kg) of 7.11 mL/min/kg.
In the case of `N#Cc1sc(NC(=O)[C@H]2CC[C@@H](C(=O)[O-])C2)nc1-c1ccccc1.[Na+]` [Sodium (1R,3S)-3-((5-cyano-4-phenylthiazol-2-yl)carbamoyl)cyclopentane-1-carboxylate], the “hygroscopicity (result in words)” value [2, 6] is reported as “showed evident hygroscopicity”, the solubility (physchem) is reported as 36.3 µM and the AUC(0-t) (in vivo; iv, 1 mg/kg) is reported as 5090 ng·h/mL. For the same molecule, the clearance (in vivo; iv, 1 mg/kg) was 3.31 mL/min/kg, the AUC(0-t) (in vivo; po, 5 mg/kg) was 21600 ng·h/mL and the Cmax (in vivo; po, 5 mg/kg) was 13200 ng/mL. The bioavailability (in vivo; po, 5 mg/kg) was 85% and the “stability under forced conditions” value [3] was “did not have good stability, changed color”.
In the case of `N#Cc1sc(NC(=O)[C@H]2CC[C@@H](C(=O)O)C2)nc1-c1ccccc1` [(1R,3S)-3-(5-cyano-4-phenyl-1,3-thiazol-2-ylcarbamoyl)cyclop] [(1R,3S)-3-(5-cyano-4-phenyl-1,3-thiazol-2-ylcarbamoyl)cyclopentane carboxylic acid], the “moisture content at 25% RH” value [2] is reported as 0.1283%, the “moisture content at 55% RH” value [2] is reported as 0.3008% and the “moisture content at 75% RH” value [2] is reported as 0.4369%. The “moisture content at 75% RH” value ([2]; listed as free acid) was 0.43% and the “hygroscopicity (result in words)” value [2, 6] was “exhibits certain levels of hygroscopicity”.
In the case of “Magnesium (1R,3S)-3-((5-cyano-4-phenylthiazol-2-yl)carbamoyl)cyclopentane-1-carboxylate”, the “hygroscopicity (result in words)” value [2] is reported as “very hygroscopic”, the “moisture content at 25% RH” value [2] is reported as 4.929% and the “moisture content at 55% RH” value [2] is reported as 11.27%. For the same molecule, the “moisture content at 75% RH” value [2] was 18.11% and the “moisture content at 75% RH” value ([2]; listed as magnesium salt) was 18%.
For `CCNCC.N#Cc1sc(NC(=O)[C@H]2CC[C@@H](C(=O)O)C2)nc1-c1ccccc1` [Diethylammonium (1R,3S)-3-((5-cyano-4-phenylthiazol-2-yl)carbamoyl)cyclopentane-1-carboxylate], the “stability under forced conditions” value [3] was “showed some degradation”, the clearance ([1]; iv 1 mg/Kg) was 5.02 mL/min/kg and the AUC last ([1]; iv 1 mg/Kg, plasma) was 3383.00 ng·h/mL. For the same molecule, the “F % (bioavailability)” value ([1]; po 5 mg/Kg vs iv 1 mg/Kg, from AUClast) was 68%, the AUC last ([1]; po 5 mg/Kg, plasma) was 11580.30 ng·h/mL and the Cmax ([1]; po 5 mg/Kg, solution in normal saline, plasma) was 5906.53 ng/mL.
